# Results reported in patent publication US10954232B2, “Pyrazole derivative as ALK5 inhibitor and uses thereof” (HANMI PHARMACEUTICAL CO., LTD., priority 2016, dated 2021).
# Target: T1, ALK5 kinase (Homo sapiens, UniProt P36897)
# T1 construct: GST; purchased Thermo Fisher Scientific Solutions
# T1 sequence (P36897 34-503): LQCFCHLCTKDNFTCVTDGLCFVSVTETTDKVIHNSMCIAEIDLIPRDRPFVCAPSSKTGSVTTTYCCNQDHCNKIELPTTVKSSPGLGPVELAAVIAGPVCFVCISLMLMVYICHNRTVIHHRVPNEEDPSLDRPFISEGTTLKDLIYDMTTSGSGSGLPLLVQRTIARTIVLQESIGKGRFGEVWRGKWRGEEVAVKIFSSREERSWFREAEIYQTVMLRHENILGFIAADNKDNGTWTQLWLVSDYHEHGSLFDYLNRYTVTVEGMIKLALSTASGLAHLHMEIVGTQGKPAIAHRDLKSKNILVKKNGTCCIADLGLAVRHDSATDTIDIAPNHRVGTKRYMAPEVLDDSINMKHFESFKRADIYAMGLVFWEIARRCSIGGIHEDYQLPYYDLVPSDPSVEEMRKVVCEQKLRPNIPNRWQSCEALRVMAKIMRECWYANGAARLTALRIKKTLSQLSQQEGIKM
# Assay: Activity inhibition test on ALK5 enzyme (LanthaScreen Eu binding kinase assay)
# Conditions: kinase tracer 178, 60 minutes at room temperature
# Outline: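 TR-FRET tracer-displacement format with final 5 nM ALK5, 2 nM Eu-GST antibody and 10 nM kinase tracer 178. Compound dilution series ran 1 μM–0.0001 μM, incubated 60 min at room temperature with stirring. Fluorescence was read ([…]), and IC50 came from percent inhibition versus control.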
row,SMILES,IC50
1,"Cc1cccc(-n2nc(C(=O)Nc3ccc(Br)cc3)cc2-c2ccc3ncnn3c2)n1 [Example 132, 5-([1,2,4]triazolo[1,5-α]pyridin-6-yl)-N-(4-bromophenyl)-1-(6-methylpyridin-2-yl)-1H-pyrazole-3-carboxyamide]",~10 nM
2,"Cc1cccc(-n2nc(C(=O)Nc3cccc(F)c3F)cc2-c2ccc3ncnn3c2)n1 [Example 133, 5-([1,2,4]triazolo[1,5-α]pyridin-6-yl)-N-(2,3-difluorophenyl)-1-(6-methylpyridin-2-yl)-1H-pyrazole-3-carboxyamide]",10 to 100 nM
3,"Cc1cccc(-n2nc(C(=O)Nc3cc(F)ccc3F)cc2-c2ccc3ncnn3c2)n1 [Example 135, 5-([1,2,4]triazolo[1,5-α]pyridin-6-yl)-N-(2,5-difluorophenyl)-1-(6-methylpyridin-2-yl)-1H-pyrazole-3-carboxyamide]",10 to 100 nM
4,"Cc1cccc(-n2nc(C(=O)Nc3ccc(F)c(F)c3)cc2-c2ccc3ncnn3c2)n1 [Example 136, 5-([1,2,4]triazolo[1,5-α]pyridin-6-yl)-N-(3,4-difluorophenyl)-1-(6-methylpyridin-2-yl)-1H-pyrazole-3-carboxyamide]",~10 nM
5,"Cc1cccc(-n2nc(C(=O)Nc3cccc(Cl)c3F)cc2-c2ccc3ncnn3c2)n1 [Example 138, 5-([1,2,4]triazolo[1,5-α]pyridin-6-yl)-N-(3-chloro-2-fluorophenyl)-1-(6-methylpyridin-2-yl)-1H-pyrazole-3-carboxyamide]",10 to 100 nM
6,"Cc1cccc(-n2nc(C(=O)Nc3ccc(Cl)c(Cl)c3)cc2-c2ccc3ncnn3c2)n1 [Example 141, 5-([1,2,4]triazolo[1,5-α]pyridin-6-yl)-N-(3,4-dichlorophenyl)-1-(6-methylpyridin-2-yl)-1H-pyrazole-3-carboxyamide]",10 to 100 nM
7,"Cc1cccc(-n2nc(C(=O)Nc3ccc(F)cc3Br)cc2-c2ccc3ncnn3c2)n1 [Example 142, 5-([1,2,4]triazolo[1,5-α]pyridin-6-yl)-N-(2-bromo-4-fluorophenyl)-1-(6-methylpyridin-2-yl)-1H-pyrazole-3-carboxyamide]",10 to 100 nM
8,CSc1cccc(NC(=O)c2cc(-c3ccc4ncnn4c3)n(-c3cccc(C)n3)n2)c1 [Example 143],6.6 nM
9,CSc1ccc(NC(=O)c2cc(-c3ccc4ncnn4c3)n(-c3cccc(C)n3)n2)cc1 [Example 144],10 to 100 nM
10,"Cc1cccc(-n2nc(C(=O)Nc3ccc(S(C)(=O)=O)cc3)cc2-c2ccc3ncnn3c2)n1 [Example 147, 5-([1,2,4]triazolo[1,5-α]pyridin-6-yl)-N-(4-(methylsulfonyl)phenyl)-1-(6-methylpyridin-2-yl)-1H-pyrazole-3-carboxyamide]",3.7 nM
11,"Cc1cccc(-n2nc(C(=O)Nc3ccc(S(N)(=O)=O)cc3)cc2-c2ccc3ncnn3c2)n1 [Example 148, 5-([1,2,4]triazolo[1,5-α]pyridin-6-yl)-N-(4-sulfamoylphenyl)-1-(6-methylpyridin-2-yl)-1H-pyrazole-3-carboxyamide]",8.3 nM
12,"CCCS(=O)(=O)c1ccc(NC(=O)c2cc(-c3ccc4ncnn4c3)n(-c3cccc(C)n3)n2)cc1 [Example 150, 5-([1,2,4]triazolo[1,5-α]pyridin-6-yl)-N-(4-(propylsulfonyl)phenyl)-1-(6-methylpyridin-2-yl)-1H-pyrazole-3-carboxyamide]",4.8 nM
13,"Cc1cccc(-n2nc(C(=O)Nc3ccc(Cl)nc3)cc2-c2ccc3ncnn3c2)n1 [Example 153, 5-([1,2,4]triazolo[1,5-α]pyridin-6-yl)-N-(6-chloropyridin-3-yl)-1-(6-methylpyridin-2-yl)-1H-pyrazole-3-carboxyamide]",25 nM
14,"COc1ccc(NC(=O)c2cc(-c3ccc4ncnn4c3)n(-c3cccc(C)n3)n2)cn1 [Example 154, 5-([1,2,4]triazolo[1,5-α]pyridin-6-yl)-N-(6-methoxypyridin-3-yl)-1-(6-methylpyridin-2-yl)-1H-pyrazole-3-carboxyamide]",~10 nM
15,"Cc1cccc(-n2nc(C(=O)NCc3cccc(F)c3)cc2-c2ccc3ncnn3c2)n1 [Example 156, 5-([1,2,4]triazolo[1,5-α]pyridin-6-yl)-N-(3-fluorobenzyl)-1-(6-methylpyridin-2-yl)-1H-pyrazole-3-carboxyamide]",22 nM
16,"COc1cccc(CNC(=O)c2cc(-c3ccc4ncnn4c3)n(-c3cccc(C)n3)n2)c1 [Example 158, 5-([1,2,4]triazolo[1,5-α]pyridin-6-yl)-N-(3-methoxybenzyl)-1-(6-methylpyridin-2-yl)-1H-pyrazole-3-carboxyamide]",10 to 100 nM
17,"COc1ccc(CNC(=O)c2cc(-c3ccc4ncnn4c3)n(-c3cccc(C)n3)n2)cc1 [Example 159, 5-([1,2,4]triazolo[1,5-α]pyridin-6-yl)-N-(4-methoxybenzyl)-1-(6-methylpyridin-2-yl)-1H-pyrazole-3-carboxyamide]",10 to 100 nM
18,"Cc1cccc(-n2nc(C(=O)NCc3ccc(N(C)C)cc3)cc2-c2ccc3ncnn3c2)n1 [Example 160, 5-([1,2,4]triazolo[1,5-α]pyridin-6-yl)-N-(4-(dimethylamino)benzyl)-1-(6-methylpyridin-2-yl)-1H-pyrazole-3-carboxyamide]",10 to 100 nM
19,"CC(=O)Nc1ccc(CNC(=O)c2cc(-c3ccc4ncnn4c3)n(-c3cccc(C)n3)n2)cc1 [Example 161, 5-([1,2,4]triazolo[1,5-α]pyridin-6-yl)-N-(4-acetamidobenzyl)-1-(6-methylpyridin-2-yl)-1H-pyrazole-3-carboxyamide]",10 to 100 nM

# Now from value to compound:
row,IC50,SMILES
1,10 to 100 nM,"Cc1cccc(-n2nc(C(=O)Nc3ccc(F)cc3F)cc2-c2ccc3ncnn3c2)n1 [Example 134, 5-([1,2,4]triazolo[1,5-α]pyridin-6-yl)-N-(2,4-difluorophenyl)-1-(6-methylpyridin-2-yl)-1H-pyrazole-3-carboxyamide]"
2,10 to 100 nM,"Cc1cccc(-n2nc(C(=O)Nc3cc(F)cc(F)c3)cc2-c2ccc3ncnn3c2)n1 [Example 137, 5-([1,2,4]triazolo[1,5-α]pyridin-6-yl)-N-(3,5-difluorophenyl)-1-(6-methylpyridin-2-yl)-1H-pyrazole-3-carboxyamide]"
3,10 to 100 nM,"Cc1cccc(-n2nc(C(=O)Nc3ccc(Cl)cc3F)cc2-c2ccc3ncnn3c2)n1 [Example 139, 5-([1,2,4]triazolo[1,5-α]pyridin-6-yl)-N-(4-chloro-2-fluorophenyl)-1-(6-methylpyridin-2-yl)-1H-pyrazole-3-carboxyamide]"
4,~10 nM,"Cc1cccc(-n2nc(C(=O)Nc3ccc(F)c(Cl)c3)cc2-c2ccc3ncnn3c2)n1 [Example 140, 5-([1,2,4]triazolo[1,5-α]pyridin-6-yl)-N-(3-chloro-4-fluorophenyl)-1-(6-methylpyridin-2-yl)-1H-pyrazole-3-carboxyamide]"
5,15 nM,"Cc1cccc(-n2nc(C(=O)Nc3cccc([S+](C)[O-])c3)cc2-c2ccc3ncnn3c2)n1 (stereo not drawn) [Example 145, 5-([1,2,4]triazolo[1,5-α]pyridin-6-yl)-N-(3-(methylsulfinyl)phenyl)-1-(6-methylpyridin-2-yl)-1H-pyrazole-3-carboxyamide]"
6,6 nM,"Cc1cccc(-n2nc(C(=O)Nc3ccc([S+](C)[O-])cc3)cc2-c2ccc3ncnn3c2)n1 (stereo not drawn) [Example 146, 5-([1,2,4]triazolo[1,5-α]pyridin-6-yl)-N-(4-(methylsulfinyl)phenyl)-1-(6-methylpyridin-2-yl)-1H-pyrazole-3-carboxyamide]"
7,7.7 nM,"Cc1cccc(-n2nc(C(=O)Nc3ccc(S(C)(=N)=O)cc3)cc2-c2ccc3ncnn3c2)n1 (stereo not drawn) [Example 149, 5-([1,2,4]triazolo[1,5-α]pyridin-6-yl)-N-(4-(S-methylsulfonimidoyl)phenyl)-1-(6-methylpyridin-2-yl)-1H-pyrazole-3-carboxyamide]"
8,2.7 nM,"CCCS(=O)(=O)c1ccc(NC(=O)c2cc(-c3ccc4ncnn4c3)n(-c3cccc(C)n3)n2)cc1 [Example 151, 5-([1,2,4]triazolo[1,5-α]pyridin-6-yl)-N-(4-(propylsulfonyl)phenyl)-1-(6-methylpyridin-2-yl)-1H-pyrazole-3-carboxyamide]"
9,4.6 nM,"Cc1cccc(-n2nc(C(=O)Nc3ccc(F)nc3)cc2-c2ccc3ncnn3c2)n1 [Example 152, 5-([1,2,4]triazolo[1,5-α]pyridin-6-yl)-N-(6-fluoropyridin-3-yl)-1-(6-methylpyridin-2-yl)-1H-pyrazole-3-carboxyamide]"
10,13 nM,"Cc1cccc(-n2nc(C(=O)NCc3ccccc3F)cc2-c2ccc3ncnn3c2)n1 [Example 155, 5-([1,2,4]triazolo[1,5-α]pyridin-6-yl)-N-(2-fluorobenzyl)-1-(6-methylpyridin-2-yl)-1H-pyrazole-3-carboxyamide]"
11,10 to 100 nM,"Cc1cccc(-n2nc(C(=O)NCc3ccc(F)cc3)cc2-c2ccc3ncnn3c2)n1 [Example 157, 5-([1,2,4]triazolo[1,5-α]pyridin-6-yl)-N-(4-fluorobenzyl)-1-(6-methylpyridin-2-yl)-1H-pyrazole-3-carboxyamide]"
12,2 nM,"Cc1cccc(-n2nc(C(=O)Nc3cnn(S(C)(=O)=O)c3)cc2-c2ccc3ncnn3c2)n1 [Example 162, 5-([1,2,4]triazolo[1,5-α]pyridin-6-yl)-1-(6-methylpyridin-2-yl)-N-(1-(methylsulfonyl)-1H-pyrazol-4-yl)-1H-pyrazole-3-carboxyamide]"
